The experiment has as its system Passive Cutaneous Anaphylaxis. As to the kind of experiment: Passive Cutaneous Anaphylaxis test (PCA) in rats. It is filed as in vivo. The note with it: Rattus norvegicus, read-out: ED50 (dose reducing the size of the blued area by 50%). How it is done:
The compounds of the present invention, that is, those embraced by formula I and their non-toxic, pharmacologically acceptable salts, have useful pharmacodynamic properties.
The anti-allergic properties were ascertained in rats by the Passive Cutaneous Anaphylaxis test (PCA) essentially as described by Goose and Blair (Immunology 16: 749-760,1969). Rat serum was diluted so that the skin reactions with diameters between 10 and 15 mm in unsensitized rats were produced. The PCA test was performed in duplicate by injecting 0.1 ml of this antiserum dilution on each side of the shaved back of rats. Rats so treated were injected intravenously (i.v.) twenty-four hours later with 5 mg ovalbumin in 0.5 ml of 2% Evans Blue and the test substance to be tested by the i.v. route. In the case of substances tested orally, the i.v. ovalbumin challenge was 0.015 mg in the 0.5 ml of 2% Evans Blue solution administered 20-30 minutes after the oral administration of the test substance. Thirty minutes after challenge the rats were killed by CO2 asphyxiation and the skin reflected the diameters, in millimeters, of the blued areas were measured and the mean diameter determined. The circular area was calculated and the mean area in square millimeters of the control group was considered as 100% and the results of the compound test groups were expressed as a percentage change from these control values. From dose response curves the dose reducing the size of the blued area by 50% (ED50) was estimated.

The mark [1] stands for this setting: iv, test substance given i.v. with 5 mg ovalbumin in 0.5 ml of 2% Evans Blue.
Setting [2] is: p.o., 0.015 mg ovalbumin i.v. challenge 20-30 minutes after oral administration.

SMILES strings stand for the structures. Counter-ions that a name gives are not always drawn. Like-named read-outs stand apart in the source and are kept apart here.

On to `COc1ccc(-c2csc(NC(=O)C(=O)O)n2)c(OC)c1` [4-(2',4'4'-dimethoxy-phenyl)-thiazolyl-2-oxamic acid], for which, under setting [1], the ED50 was 0.39 mg/kg.

As for `COc1ccc(OC)c(-c2csc(NC(=O)C(=O)O)n2)c1` [4-(2',5'-dimethoxy-phenyl)-thiazolyl-2-oxamic acid ethanolamine salt], under setting [1], the ED50 was 0.4 mg/kg.

In the case of `COc1ccccc1-c1csc(NC(=O)C(=O)O)n1` [4-(2'-Methoxy-phenyl)-thiazolyl-2-oxamic acid], the median effective dose (ED50) under setting [1] was 1.08 mg/kg.

As to `CN(C)c1cccc(-c2csc(NC(=O)C(=O)O)n2)c1` [4-(3' -dimethylamino-phenyl)-thiazolyl-2-oxamic acid ethanolamine salt], the ED50 is, setting by setting: under setting [1], 0.34 mg/kg; under setting [2], 1.06 mg/kg.

Take `COc1ccc(-c2csc(NC(=O)C(=O)O)n2)cc1OC` [4-(3',4'-dimethoxy-phenyl)-thiazolyl-2-oxamic acid]: the ED50 under setting [1] amounted to 0.13 mg/kg.

Take `COc1cccc(-c2csc(NC(=O)C(=O)O)n2)c1` [4-(3'-methoxy-phenyl)-thiazolyl-2-oxamic acid]: the ED50 is 0.16 mg/kg under setting [1] and 2 mg/kg under setting [2].

Take `CN(C)c1ccc(-c2csc(NC(=O)C(=O)O)n2)cc1` [4-(4'-dimethylamino-phenyl)-thiazolyl-2-oxamic acid]: the ED50 stood at 0.02 mg/kg under setting [1] and 0.34 mg/kg under setting [2].

In the case of `O=C(O)C(=O)Nc1nc(-c2ccc3c(c2)OCCO3)cs1` [4-(benzodioxanyl)-thiazolyl-2-oxamic acid ethanolamine salt], the median effective dose (ED50) under setting [1] was determined as 0.02 mg/kg and the ED50 under setting [2] was 0.7 mg/kg.

For the molecule `O=C(O)C(=O)Nc1nc(-c2cccnc2)cs1` [4-[pyridyl-(3')]-thiazolyl-2-oxamic acid ethanolamine salt], the ED50 under setting [1] came out at 0.16 mg/kg.

Take `O=C(O)C(=O)Nc1nc(-c2ccncc2)cs1` [4-[pyridyl-(4')]-thiazolyl-2-oxamic acid ethanolamine salt]: the ED50 under setting [1] amounted to 0.05 mg/kg.

`Cc1sc(NC(=O)C(=O)O)nc1-c1ccccc1` [4-phenyl-5-methyl-thiazolyl-2-oxamic acid]: the 50% effective dose (ED50) is, setting by setting: under setting [1], 0.19 mg/kg; under setting [2], 2.04 mg/kg.

Consider `CCOC(=O)C(=O)Nc1nc(-c2ccc(O)c(C)c2)cs1` [Ethyl 4-(3'-methyl-4'-hydroxy-phenyl)-thiazolyl-2-oxamate], for which the ED50 under setting [2] came to 2.1 mg/kg.

Turning to `CCOC(=O)C(=O)Nc1nc(-c2ccc(OCC)cc2)cs1` [Ethyl 4-(4'-ethoxy-phenyl)-thiazolyl-2-oxamate], under setting [2], the median effective dose (ED50) is 2.07 mg/kg.

Take `CCOC(=O)C(=O)Nc1nc(-c2ccncc2)cs1` [Ethyl 4-[pyridyl-($')]-thiazolyl-2-oxamate]: under setting [2], the ED50 is 1.2 mg/kg.

`COC(=O)C(=O)Nc1nc(-c2ccc(OC)c(OC)c2)cs1` [Methyl 4-(3',4'-dimethoxy-phenyl)-thiazolyl-2-oxamate]: the ED50 under setting [2] was found to be 1.2 mg/kg.

The record behind these values is patent US4238496A, “4-Substituted thiazolyl-2-oxamic acids and salts and esters thereof” (Boehringer Ingelheim GmbH, priority 1978, dated 1980).
